{
  "source": "patent US9492471B2",
  "about": "“Methods of treating a disease or disorder associated with Bruton'S Tyrosine Kinase” (Celgene Avilomics Research, Inc., priority 2013, dated 2016)",
  "assay_in_all_cases": "HotSpot kinase profiling",
  "assay_type_in_all_cases": "biochemical",
  "key": {"EPHA8": {"molecular_target": "T1, EPHA8 (Homo sapiens, UniProt P29322)", "T1 construct": "purchased Reaction Biology Corp", "T1 sequence (P29322 28-1005)": "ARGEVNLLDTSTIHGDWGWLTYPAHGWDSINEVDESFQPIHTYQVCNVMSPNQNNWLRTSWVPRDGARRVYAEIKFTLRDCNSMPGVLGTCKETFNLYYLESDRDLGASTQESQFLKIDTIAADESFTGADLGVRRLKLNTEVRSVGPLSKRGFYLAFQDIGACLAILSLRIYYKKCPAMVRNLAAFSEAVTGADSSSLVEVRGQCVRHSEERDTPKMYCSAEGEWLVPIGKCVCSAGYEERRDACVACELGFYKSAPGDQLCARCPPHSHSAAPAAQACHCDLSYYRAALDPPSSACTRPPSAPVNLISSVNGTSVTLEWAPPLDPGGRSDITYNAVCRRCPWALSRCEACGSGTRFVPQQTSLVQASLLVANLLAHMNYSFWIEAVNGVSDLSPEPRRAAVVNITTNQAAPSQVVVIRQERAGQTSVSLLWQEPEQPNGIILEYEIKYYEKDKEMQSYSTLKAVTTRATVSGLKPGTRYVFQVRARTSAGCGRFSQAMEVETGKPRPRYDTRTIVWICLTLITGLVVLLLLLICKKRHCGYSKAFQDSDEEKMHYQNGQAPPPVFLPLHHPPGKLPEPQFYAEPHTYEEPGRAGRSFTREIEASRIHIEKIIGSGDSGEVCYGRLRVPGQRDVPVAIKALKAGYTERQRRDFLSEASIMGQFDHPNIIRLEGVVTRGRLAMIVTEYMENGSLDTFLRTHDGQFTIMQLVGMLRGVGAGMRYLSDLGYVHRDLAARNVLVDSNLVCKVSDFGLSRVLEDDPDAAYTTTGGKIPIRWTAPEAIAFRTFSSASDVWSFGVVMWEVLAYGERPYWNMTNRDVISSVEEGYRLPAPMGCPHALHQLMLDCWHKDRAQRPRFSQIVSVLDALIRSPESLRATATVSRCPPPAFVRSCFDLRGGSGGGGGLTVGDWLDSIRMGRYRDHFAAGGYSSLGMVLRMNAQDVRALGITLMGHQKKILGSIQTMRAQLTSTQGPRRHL", "summary_of_the_method": "(§1)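 Radio-isotope P81 filtration format. Substrate + required cofactors in reaction buffer, kinase added, 2 h RT. Stop, wash with 0.1% phosphoric acid, detect. % inhibition vs DMSO; mean of duplicates where repeated.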"}, "EPHB1": {"molecular_target": "T2, EPHB1 (Homo sapiens, UniProt P54762)", "T2 construct": "purchased Reaction Biology Corp", "T2 sequence (P54762 18-984)": "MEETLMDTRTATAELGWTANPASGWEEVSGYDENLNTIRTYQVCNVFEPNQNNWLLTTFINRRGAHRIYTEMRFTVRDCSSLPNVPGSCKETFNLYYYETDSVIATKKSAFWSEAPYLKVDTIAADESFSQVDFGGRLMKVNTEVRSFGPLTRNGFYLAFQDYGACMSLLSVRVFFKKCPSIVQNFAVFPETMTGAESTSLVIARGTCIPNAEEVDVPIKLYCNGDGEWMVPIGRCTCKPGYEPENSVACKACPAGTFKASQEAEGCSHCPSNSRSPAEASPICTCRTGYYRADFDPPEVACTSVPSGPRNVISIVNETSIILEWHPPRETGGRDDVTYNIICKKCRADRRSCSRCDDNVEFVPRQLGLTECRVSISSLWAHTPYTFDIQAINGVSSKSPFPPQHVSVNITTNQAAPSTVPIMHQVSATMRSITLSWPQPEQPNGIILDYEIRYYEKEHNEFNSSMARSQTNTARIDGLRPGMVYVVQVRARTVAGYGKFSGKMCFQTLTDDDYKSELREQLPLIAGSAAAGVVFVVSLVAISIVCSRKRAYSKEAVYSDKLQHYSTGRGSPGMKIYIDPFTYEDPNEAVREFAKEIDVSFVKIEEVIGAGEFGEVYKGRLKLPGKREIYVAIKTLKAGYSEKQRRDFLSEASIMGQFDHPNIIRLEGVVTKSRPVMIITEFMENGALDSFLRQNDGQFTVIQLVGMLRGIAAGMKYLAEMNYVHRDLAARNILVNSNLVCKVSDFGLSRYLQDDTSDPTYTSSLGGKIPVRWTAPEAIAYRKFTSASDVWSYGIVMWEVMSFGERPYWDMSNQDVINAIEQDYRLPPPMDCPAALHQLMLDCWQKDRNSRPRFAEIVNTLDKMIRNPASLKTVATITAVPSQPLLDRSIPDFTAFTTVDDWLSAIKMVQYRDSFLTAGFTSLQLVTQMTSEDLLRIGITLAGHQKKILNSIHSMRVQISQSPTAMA", "summary_of_the_method": "as §1"}, "PHKg1": {"molecular_target": "T3, PHKg1 (Homo sapiens, UniProt Q16816)", "T3 construct": "purchased Reaction Biology Corp", "T3 sequence (Q16816 whole entry)": "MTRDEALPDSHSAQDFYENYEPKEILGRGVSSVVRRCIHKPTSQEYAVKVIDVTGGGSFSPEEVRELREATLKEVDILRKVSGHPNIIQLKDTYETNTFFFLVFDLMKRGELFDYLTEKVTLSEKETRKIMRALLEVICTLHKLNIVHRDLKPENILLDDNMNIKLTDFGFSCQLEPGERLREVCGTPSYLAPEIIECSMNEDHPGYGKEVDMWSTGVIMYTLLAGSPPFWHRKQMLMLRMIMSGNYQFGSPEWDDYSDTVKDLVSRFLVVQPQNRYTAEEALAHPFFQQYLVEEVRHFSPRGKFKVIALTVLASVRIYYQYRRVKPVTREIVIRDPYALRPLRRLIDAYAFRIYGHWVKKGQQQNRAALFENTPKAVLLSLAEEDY", "summary_of_the_method": "as §1"}, "TAK1": {"molecular_target": "T4, TAK1 (Homo sapiens, UniProt O43318)", "T4 construct": "purchased Reaction Biology Corp", "T4 sequence (O43318 1-303 limits assumed)": "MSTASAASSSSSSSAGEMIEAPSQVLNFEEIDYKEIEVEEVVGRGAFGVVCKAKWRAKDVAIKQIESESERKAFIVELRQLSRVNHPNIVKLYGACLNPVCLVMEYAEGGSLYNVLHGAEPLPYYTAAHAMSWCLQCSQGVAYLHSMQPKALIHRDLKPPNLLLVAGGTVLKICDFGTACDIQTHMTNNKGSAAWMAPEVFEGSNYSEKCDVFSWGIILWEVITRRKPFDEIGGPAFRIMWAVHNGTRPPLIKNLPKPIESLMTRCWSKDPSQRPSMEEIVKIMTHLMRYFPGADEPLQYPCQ", "summary_of_the_method": "as §1"}, "[1]": {"details": "read-out: % Enzyme Activity (relative to DMSO controls) Run 1"}, "[2]": {"details": "read-out: % Enzyme Activity (relative to DMSO controls) Run 2"}},
  "note": "Like-named read-outs stand apart in the source and are kept apart here.",
  "data": [
    {"compound": "C=CC(=O)Nc1cccc(Nc2nc(Nc3ccc(OCCOC)c(F)c3)ncc2F)c1", "note": "[Compound 2]", "values": [
      {"measurement": "inhibition at 3 µM", "setting": "EPHA8", "value": 5.98, "unit": "%"},
      {"measurement": "remaining activity at 3 µM", "setting": "EPHA8; [1]", "value": 94.2, "unit": "%"},
      {"measurement": "remaining activity at 3 µM", "setting": "EPHA8; [2]", "value": 93.8, "unit": "%"},
      {"measurement": "inhibition at 3 µM", "setting": "EPHB1", "value": 20.4, "unit": "%"},
      {"measurement": "remaining activity at 3 µM", "setting": "EPHB1; [1]", "value": 79.5, "unit": "%"},
      {"measurement": "remaining activity at 3 µM", "setting": "EPHB1; [2]", "value": 79.7, "unit": "%"},
      {"measurement": "inhibition at 3 µM", "setting": "PHKg1", "value": 14.5, "unit": "%"},
      {"measurement": "remaining activity at 3 µM", "setting": "PHKg1; [1]", "value": 85.8, "unit": "%"},
      {"measurement": "remaining activity at 3 µM", "setting": "PHKg1; [2]", "value": 85.2, "unit": "%"},
      {"measurement": "inhibition at 3 µM", "setting": "TAK1", "value": 27.3, "unit": "%"},
      {"measurement": "remaining activity at 3 µM", "setting": "TAK1; [1]", "value": 73.4, "unit": "%"},
      {"measurement": "remaining activity at 3 µM", "setting": "TAK1; [2]", "value": 72, "unit": "%"}
    ]}
  ]
}
